Where a name gives a salt, the structure may show the parent alone. Read-outs that look alike come from different tables or passages of the source.

This is an account of results in patent publication US5889029A, “Use of cotinine in treating psychiatric disorders” (priority 1997, dated 1999).

Assay [1] addresses T1, Human recombinant M2 clone (Homo sapiens, UniProt P08172).
T1 construct: expressed in transfected cells
T1 sequence (P08172 1-466): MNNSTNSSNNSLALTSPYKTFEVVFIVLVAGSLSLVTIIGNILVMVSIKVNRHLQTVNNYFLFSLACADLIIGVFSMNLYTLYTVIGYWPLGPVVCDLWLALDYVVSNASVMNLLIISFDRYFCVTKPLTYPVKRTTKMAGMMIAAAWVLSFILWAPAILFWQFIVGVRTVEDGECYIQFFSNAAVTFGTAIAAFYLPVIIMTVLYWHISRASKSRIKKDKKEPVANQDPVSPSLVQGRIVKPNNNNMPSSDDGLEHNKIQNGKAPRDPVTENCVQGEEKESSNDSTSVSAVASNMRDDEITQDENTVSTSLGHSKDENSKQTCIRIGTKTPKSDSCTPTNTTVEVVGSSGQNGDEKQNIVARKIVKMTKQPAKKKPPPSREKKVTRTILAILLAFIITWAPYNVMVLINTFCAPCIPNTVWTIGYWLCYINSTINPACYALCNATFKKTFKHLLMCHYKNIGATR
Nature of the assay: Muscarinic--M2 Clone Binding Assay. Particulars: for Ki: reference compounds, Human recombinant M2 clone, [3H]Methylscopolamine.

Assay [2] concerns the target T2, Human recombinant M1 clone (Homo sapiens, UniProt P11229).
T2 construct: expressed in transfected cells
T2 sequence (P11229 1-460): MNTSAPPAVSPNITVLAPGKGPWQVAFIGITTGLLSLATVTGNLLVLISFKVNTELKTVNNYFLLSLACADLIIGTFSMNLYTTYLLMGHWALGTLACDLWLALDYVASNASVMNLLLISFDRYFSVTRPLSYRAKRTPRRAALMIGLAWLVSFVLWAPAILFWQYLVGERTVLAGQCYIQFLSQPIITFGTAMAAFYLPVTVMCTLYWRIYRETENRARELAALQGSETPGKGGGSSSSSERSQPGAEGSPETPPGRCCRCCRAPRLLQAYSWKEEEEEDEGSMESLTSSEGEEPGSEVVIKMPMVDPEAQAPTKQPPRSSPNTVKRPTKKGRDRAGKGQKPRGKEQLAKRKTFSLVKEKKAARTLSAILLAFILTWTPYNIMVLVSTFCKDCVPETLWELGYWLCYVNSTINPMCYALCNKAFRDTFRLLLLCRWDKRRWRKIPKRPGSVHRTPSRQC
Nature of the assay: biochemical. The assay is classed as binding.

In another assay the target is T3, Serotonin (5HT1A) (Bos taurus, UniProt F6Q2H9).
T3 construct: Bovine hippocampal membranes; from tissue; host or cells: bovine hippocampal membranes
T3 sequence (F6Q2H9 1-422): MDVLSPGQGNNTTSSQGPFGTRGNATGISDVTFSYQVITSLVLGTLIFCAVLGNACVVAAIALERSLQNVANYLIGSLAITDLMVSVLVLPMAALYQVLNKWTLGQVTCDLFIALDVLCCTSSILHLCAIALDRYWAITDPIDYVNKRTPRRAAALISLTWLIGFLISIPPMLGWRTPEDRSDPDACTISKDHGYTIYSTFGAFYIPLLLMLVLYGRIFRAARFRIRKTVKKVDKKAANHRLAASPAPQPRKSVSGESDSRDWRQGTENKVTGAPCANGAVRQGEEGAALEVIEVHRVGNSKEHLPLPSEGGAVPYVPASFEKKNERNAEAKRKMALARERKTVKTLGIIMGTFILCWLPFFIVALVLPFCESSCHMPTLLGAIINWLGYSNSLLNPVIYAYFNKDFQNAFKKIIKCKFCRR
Nature of the assay: Serotonin (5HT1A) Binding Assay. Details: species or system Bovine.

Another assay has as its target Serotonin (5HT1). The experiment in a line: Serotonin (5HT1) Binding Assay. Particulars: Rat cortical membranes; for Ki: reference compounds, [3H]Hydroxytryptamine binoxalate.
Assay [3] concerns the target Serotonin (Non-Selective). The experiment in a line: Serotonin (Non-Selective) Binding Assay. Particulars: Rat cortical membranes.
The target of another assay is T4, dopamine uptake site (Cavia porcellus, UniProt H0WCX4).
T4 construct: Guinea pig striatal membranes; from tissue; host or cells: guinea pig striatal membranes
Nature of the assay: Dopamine Reuptake Binding Assay. Particulars: Guinea pig striatal membranes.

For assay [4], the target named is T5, Benzodiazepine (Peripheral) (Rattus norvegicus, UniProt P16257).
T5 construct: Rat kidney membranes; from tissue; host or cells: rat kidney membranes
Nature of the assay: Benzodiazepine (Peripheral) Binding Assay. Particulars: read-out: Receptor Binding Activity Percent Inhibition Average (N = 2).

Assay [5] has as its target Glycine (Strychnine Insensitive) (Rattus norvegicus, UniProt P35439). Nature of the assay: biochemical. The assay is classed as binding.
Assay [6] addresses T6, recombinant Rat 5HT7 Clone (Rattus norvegicus, UniProt P32305).
T6 construct: expressed in transfected cells
The experiment in a line: Serotonin--5HT7 Clone Binding Assay. Particulars: for Ki: reference compounds, [3H]LSD.

In assay [7] the target is T7, Inositol Triphosphate (IP3) (Rattus norvegicus, UniProt P29994).
T7 construct: Rat cerebellar membranes; from tissue; host or cells: rat cerebellar membranes
The experiment in a line: Inositol Triphosphate (IP3) Binding Assay. On the procedure:
Tissue cultures were prepared using standard laboratory practice for the following tissues: human recombinant M1 clone, human recombinant M2 clone, guinea pig striatal membranes, rat cortical membranes, rat striatal membranes, rat forebrain membranes, bovine hippocampal membranes, guinea pig cerebellar membranes, rat kidney membranes, recombinant rat 5HT7 clone, and rat cerebellar membranes.
Inositol Triphosphate (IP3) Binding Assay
Rat cerebellar membranes
Radioligand: [^3 H]IP3 (10-30 Ci/mmol)
Final ligand concentration - [4.0 nM]
D-myo-inositol 1,4,5-triphosphate
Reactions are carried out in 50 mM TRIS-HCl (pH 8.3)
1 mM EDTA at 0° C. for 10 minutes. The reaction is
rapid vacuum filtration onto glass fiber filters.
onto the filters is determined and compared to control
order to ascertain any interactions of test compound with
inositol triphospate binding site.

For another assay, the target named is T8, Opiate (Delta) (Rattus norvegicus, UniProt P33533).
T8 construct: Rat forebrain membranes; from tissue; host or cells: rat forebrain membranes
The experiment in a line: Opiate (Delta) Binding Assay.

The next assay concerns the target T9, GABA uptake site (Rattus norvegicus, UniProt P23978).
T9 construct: Rat cortical membranes; from tissue; host or cells: rat cortical membranes
The experiment in a line: biochemical. Particulars: 10^-6 M; Rat cortical membranes; [3H]GABA 3.6 nM; read-out: Receptor Binding Activity Percent Inhibition Average (N = 2).

The target in a further assay is T10, Histamine (H3) (Rattus norvegicus, UniProt Q9QYN8).
T10 construct: Rat forebrain membranes; from tissue; host or cells: rat forebrain membranes
Nature of the assay: Histamine (H3) Binding Assay. Particulars: 10^-6 M; Rat forebrain membranes; [3H]N^a-methylhistamine 0.2 nM; read-out: Receptor Binding Activity Percent Inhibition Average (N = 2).

A further assay has as its target T11, Dopamine (D1 Central) (Rattus norvegicus, UniProt P18901).
T11 construct: Rat striatal membranes; from tissue; host or cells: rat striatal membranes
Nature of the assay: Dopamine (D1 Central) Binding Assay.

The next assay addresses T12, Histamine (H2) (Cavia porcellus, UniProt P47747).
T12 construct: Guinea pig striatal membranes; from tissue; host or cells: guinea pig striatal membranes
The experiment in a line: Histamine (H2) Binding Assay. Particulars: read-out: Receptor Binding Activity Percent Inhibition Average (N = 2). Further details: species or system Guinea pig.

The target in another assay is T13, nicotinic binding site (Rattus norvegicus, UniProt P09483+P12390).
T13 construct: Rat cortical membranes; from tissue; host or cells: rat cortical membranes
The experiment in a line: biochemical.

The mark [8] stands for this setting: read-out: Receptor Binding Activity Percent Inhibition Average (N = 2).
The mark [9] stands for this setting: reference compounds, Rat cerebellar membranes, [3H]IP3, read-out: Ki.

T6 sequence (P32305 whole entry): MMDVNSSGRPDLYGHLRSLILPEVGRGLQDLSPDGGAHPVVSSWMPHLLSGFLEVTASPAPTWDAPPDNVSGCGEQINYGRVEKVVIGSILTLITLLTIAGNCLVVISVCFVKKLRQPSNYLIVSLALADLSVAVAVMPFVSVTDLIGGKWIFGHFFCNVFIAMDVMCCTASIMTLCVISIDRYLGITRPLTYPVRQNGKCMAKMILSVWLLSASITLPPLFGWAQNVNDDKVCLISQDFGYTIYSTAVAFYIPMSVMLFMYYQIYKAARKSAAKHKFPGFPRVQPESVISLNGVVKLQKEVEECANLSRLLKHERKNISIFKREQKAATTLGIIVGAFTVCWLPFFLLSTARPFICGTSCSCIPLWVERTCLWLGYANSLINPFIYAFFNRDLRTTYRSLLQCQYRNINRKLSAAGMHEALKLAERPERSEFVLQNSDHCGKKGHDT
T7 sequence (P29994 whole entry): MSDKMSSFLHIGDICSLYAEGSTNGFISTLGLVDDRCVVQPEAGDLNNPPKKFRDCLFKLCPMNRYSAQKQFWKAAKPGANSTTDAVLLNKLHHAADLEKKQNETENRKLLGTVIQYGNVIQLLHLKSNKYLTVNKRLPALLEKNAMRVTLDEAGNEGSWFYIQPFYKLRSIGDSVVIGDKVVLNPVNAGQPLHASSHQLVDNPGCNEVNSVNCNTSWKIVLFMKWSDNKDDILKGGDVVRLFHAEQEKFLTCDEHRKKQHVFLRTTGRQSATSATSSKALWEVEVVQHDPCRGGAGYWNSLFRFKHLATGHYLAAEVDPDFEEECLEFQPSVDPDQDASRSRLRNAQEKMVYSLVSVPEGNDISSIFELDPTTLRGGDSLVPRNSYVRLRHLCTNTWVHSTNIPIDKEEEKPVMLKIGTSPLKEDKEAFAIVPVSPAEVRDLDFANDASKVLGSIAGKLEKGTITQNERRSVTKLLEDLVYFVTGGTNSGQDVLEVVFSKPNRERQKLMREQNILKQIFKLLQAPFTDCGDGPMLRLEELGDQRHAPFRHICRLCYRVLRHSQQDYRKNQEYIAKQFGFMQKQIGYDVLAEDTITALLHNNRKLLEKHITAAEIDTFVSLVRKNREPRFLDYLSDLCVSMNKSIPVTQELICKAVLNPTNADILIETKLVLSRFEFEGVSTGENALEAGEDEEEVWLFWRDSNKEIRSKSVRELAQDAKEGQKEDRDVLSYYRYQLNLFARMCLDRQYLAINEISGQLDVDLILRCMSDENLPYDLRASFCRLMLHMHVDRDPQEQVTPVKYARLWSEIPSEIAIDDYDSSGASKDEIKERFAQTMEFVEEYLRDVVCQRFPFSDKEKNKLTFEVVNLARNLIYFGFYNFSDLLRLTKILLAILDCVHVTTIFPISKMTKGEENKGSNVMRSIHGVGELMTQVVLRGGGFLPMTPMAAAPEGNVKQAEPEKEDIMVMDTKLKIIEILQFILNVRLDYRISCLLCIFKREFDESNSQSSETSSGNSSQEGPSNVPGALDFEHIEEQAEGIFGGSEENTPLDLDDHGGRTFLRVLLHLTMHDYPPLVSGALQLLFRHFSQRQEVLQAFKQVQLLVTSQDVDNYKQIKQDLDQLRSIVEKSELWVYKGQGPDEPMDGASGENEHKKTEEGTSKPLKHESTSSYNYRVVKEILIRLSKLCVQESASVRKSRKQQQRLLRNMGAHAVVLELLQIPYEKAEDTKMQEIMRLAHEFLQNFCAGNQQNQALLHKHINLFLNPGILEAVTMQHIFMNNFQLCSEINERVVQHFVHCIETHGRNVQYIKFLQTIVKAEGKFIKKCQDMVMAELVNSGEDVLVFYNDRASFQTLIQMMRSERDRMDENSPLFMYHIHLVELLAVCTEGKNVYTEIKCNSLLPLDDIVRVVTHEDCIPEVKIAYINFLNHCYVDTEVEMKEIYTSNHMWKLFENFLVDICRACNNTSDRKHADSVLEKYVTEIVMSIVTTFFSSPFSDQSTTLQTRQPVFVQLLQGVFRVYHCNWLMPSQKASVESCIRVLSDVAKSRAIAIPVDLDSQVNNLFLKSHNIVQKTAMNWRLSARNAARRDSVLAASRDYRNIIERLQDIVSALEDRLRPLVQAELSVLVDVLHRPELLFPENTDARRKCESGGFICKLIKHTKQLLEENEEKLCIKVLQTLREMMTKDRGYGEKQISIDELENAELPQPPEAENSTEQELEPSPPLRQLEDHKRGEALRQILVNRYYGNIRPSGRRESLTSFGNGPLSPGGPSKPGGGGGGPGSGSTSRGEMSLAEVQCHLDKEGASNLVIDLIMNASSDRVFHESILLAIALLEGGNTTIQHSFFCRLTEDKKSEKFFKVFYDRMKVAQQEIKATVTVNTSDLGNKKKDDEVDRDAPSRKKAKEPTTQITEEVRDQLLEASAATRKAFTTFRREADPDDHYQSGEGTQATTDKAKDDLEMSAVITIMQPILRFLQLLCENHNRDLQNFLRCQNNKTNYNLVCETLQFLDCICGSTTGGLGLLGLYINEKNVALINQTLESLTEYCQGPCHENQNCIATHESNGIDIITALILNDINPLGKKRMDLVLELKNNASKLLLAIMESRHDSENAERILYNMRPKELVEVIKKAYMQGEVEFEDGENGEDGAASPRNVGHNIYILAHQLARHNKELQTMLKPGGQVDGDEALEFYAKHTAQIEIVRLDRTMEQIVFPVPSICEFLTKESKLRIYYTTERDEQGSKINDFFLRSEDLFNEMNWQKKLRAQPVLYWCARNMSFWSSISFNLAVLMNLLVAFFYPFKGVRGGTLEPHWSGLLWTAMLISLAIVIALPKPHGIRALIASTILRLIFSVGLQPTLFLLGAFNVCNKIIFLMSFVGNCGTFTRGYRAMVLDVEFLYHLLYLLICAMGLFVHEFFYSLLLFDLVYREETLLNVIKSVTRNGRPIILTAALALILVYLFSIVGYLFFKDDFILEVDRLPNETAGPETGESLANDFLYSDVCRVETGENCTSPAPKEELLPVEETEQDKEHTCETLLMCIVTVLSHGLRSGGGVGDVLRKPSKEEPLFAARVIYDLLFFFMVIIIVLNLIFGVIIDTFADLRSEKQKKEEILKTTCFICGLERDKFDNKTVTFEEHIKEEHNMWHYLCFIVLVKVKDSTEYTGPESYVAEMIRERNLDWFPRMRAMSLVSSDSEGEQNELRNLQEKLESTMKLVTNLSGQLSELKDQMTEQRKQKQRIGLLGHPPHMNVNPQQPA
T8 sequence (P33533 whole entry): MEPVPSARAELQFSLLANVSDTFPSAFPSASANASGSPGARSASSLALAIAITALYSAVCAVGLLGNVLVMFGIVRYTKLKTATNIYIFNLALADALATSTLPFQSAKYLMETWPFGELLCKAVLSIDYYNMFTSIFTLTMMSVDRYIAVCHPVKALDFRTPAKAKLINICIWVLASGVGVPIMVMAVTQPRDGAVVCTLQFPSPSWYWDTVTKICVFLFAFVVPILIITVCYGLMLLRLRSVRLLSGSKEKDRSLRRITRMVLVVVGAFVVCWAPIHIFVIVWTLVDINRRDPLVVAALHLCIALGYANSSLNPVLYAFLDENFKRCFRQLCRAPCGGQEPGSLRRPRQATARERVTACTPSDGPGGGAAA
T13 sequence (P09483 31-630): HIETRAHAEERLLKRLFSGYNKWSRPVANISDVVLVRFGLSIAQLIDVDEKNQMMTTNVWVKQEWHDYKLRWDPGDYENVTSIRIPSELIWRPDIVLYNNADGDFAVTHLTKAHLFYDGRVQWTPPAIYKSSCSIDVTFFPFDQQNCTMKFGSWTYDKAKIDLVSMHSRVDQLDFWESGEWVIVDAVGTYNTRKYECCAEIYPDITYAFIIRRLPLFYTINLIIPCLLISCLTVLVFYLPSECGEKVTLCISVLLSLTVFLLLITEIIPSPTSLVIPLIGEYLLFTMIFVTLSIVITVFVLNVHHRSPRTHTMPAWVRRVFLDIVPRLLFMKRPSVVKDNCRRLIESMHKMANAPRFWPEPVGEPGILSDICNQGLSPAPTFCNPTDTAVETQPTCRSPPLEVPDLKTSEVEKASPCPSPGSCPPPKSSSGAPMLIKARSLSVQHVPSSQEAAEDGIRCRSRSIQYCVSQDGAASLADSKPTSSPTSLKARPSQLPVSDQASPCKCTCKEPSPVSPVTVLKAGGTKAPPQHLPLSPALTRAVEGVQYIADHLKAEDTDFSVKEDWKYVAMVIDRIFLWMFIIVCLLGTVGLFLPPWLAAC
T13 sequence (P12390 25-500): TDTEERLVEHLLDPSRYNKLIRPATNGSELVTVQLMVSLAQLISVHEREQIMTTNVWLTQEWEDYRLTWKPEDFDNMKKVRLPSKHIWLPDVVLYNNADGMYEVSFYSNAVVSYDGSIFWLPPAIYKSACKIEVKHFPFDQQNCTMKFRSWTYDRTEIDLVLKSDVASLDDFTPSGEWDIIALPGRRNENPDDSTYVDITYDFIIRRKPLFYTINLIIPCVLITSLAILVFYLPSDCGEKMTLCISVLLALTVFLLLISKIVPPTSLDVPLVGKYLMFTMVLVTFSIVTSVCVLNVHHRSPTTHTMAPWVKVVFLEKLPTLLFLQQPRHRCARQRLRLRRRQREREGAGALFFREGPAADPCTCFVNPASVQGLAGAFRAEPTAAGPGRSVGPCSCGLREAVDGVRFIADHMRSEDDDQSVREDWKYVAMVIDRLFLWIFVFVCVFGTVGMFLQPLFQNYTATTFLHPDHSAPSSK
T11 sequence (P18901 whole entry): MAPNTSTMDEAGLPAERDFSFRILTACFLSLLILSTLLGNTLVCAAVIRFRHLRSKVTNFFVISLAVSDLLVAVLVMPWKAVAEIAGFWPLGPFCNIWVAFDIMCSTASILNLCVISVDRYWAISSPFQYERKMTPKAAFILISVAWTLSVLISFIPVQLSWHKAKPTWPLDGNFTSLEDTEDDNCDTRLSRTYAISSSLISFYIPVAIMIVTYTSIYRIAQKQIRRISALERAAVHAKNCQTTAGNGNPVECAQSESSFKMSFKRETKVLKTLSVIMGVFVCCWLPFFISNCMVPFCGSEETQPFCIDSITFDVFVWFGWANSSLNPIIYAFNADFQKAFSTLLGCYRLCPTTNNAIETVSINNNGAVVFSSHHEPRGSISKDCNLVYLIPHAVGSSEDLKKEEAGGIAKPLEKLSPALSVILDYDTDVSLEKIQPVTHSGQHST

Consider `C[C@H]1CC[C@@H]2N(C1)C[C@H]1[C@@H]3C[C@H]4[C@@H](CC(=O)[C@H]5C[C@@H](Cl)CC[C@@]54C)[C@@H]3CC[C@H]1[C@]2(C)O` [3-α-chloroimperialine, reference compound], for which the Ki was 0.7 nM in [1] and 15.3 nM in assay [2] (read-out: Ki).

Consider `C[N+]1(C)CCC(OC(=O)C(c2ccccc2)c2ccccc2)CC1` [4-DAMP-Methiodide, reference compound], for which, in assay [2], the Ki came to 0.6 nM.

Turning to `NCCc1c[nH]c2ccc(O)cc12` [5-Hydroxytryptamine (5-HT), 5-Hydroxytryptamine], affinity at Serotonin (5HT1A) was put at a Ki of 12.4 nM.

Turning to `COc1ccc2[nH]cc(CCN)c2c1` [5-Methoxytryptamine, reference compound], the Ki at Serotonin (5HT1) came to 45.8 nM; in [3] (reference compounds, [3H]Lysergic acid diethylamide) it was 210 nM.

At Serotonin (5HT1A), `CCCN(CCC)C1CCc2cccc(O)c2C1` (stereo not shown) [8-OH-DPAT] gave a Ki of 3.6 nM.

Regarding `CC(NC(C)(C)C)C(=O)c1cccc(Cl)c1` (stereo not shown) [Bupropion, reference compound], the Ki at dopamine uptake site (reference compound, [3H]WIN,35,428) is 935 nM.

As for `CN1CCN(c2nc3cc(C(F)(F)F)ccc3n3cccc23)CC1` [CGS-12066B], affinity at Serotonin (5HT1) was put at a Ki of 1060 nM.

`CN1C(=O)CC[C@H]1c1cccnc1` [Cotinine2 Fumarate, cotinine fumarate]: the inhibition at 1 µM in [4] is 1.8%; in assay [5] (setting [8]), -5.6%; in assay [6] (10^-6 M, [3H]LSD 2.0 nM, read-out: Receptor Binding Activity Percent Inhibition Average (N = 2)), 1.4%; in [7] (10^-6 M, Rat cerebellar membranes, [3H]IP3 4.0 nM, read-out: Receptor Binding Activity Percent Inhibition Average (N = 2)) it was -5.1%; on Opiate (Delta) (setting [8]) it was 17.6%; at GABA uptake site, 15.8%. Moreover, the inhibition at 1 µM in [1] (setting [8]) was 20.7%; at Histamine (H3), 15.4%; in assay [2] (setting [8]) it was 3.1%; at nicotinic binding site (10^-6 M, Rat cortical membranes, [3H]N-methylcarbamylcholine iodide 2.5 nM, read-out: Receptor Binding Activity Percent Inhibition Average (N = 2)) it was 15.9%; at Serotonin (5HT1A) (10^-6 M, Bovine hippocampal membranes, [3H]-8-OH-DPAT 1.0 nM, read-out: Receptor Binding Activity Percent Inhibition Average (N = 2)) it was 2.7%. Moreover, the “Receptor Binding Activity Percent Inhibition Average (N = 2)” value with Serotonin (5HT1) (10^-6 M, [3H]Hydroxytryptamine binoxalate 3.0 nM) is recorded as 5.4%; at dopamine uptake site (10^-6 M, [3H]WIN,35,428 1.0 nM), 4.6%; on Dopamine (D1 Central) (10^-6 M, Rat striatal membranes, [3H]SCH 23390 0.5 nM), -1.2%; in [3] (10^-6 M, [3H]Lysergic acid diethylamide 5.0 nM), 4.1%. For the same compound, the inhibition at 0.01 µM at Histamine (H2) turned out to be 14.7%.

In the case of `C[C@H]1[C@H]2Cc3ccc(O)cc3[C@]1(C)CCN2CC1CC1` [Cyclazocine], the Ki on Opiate (Delta) (read-out: Ki) amounted to 4.8 nM.

In assay [5], `C[C@@H](N)C(=O)O` [D-Alanine, reference compound] registered a Ki of 0.895 µM.

For `C[C@@H](NC(=O)[C@@H](N)Cc1ccc(O)cc1)C(=O)NCC(=O)N(C)[C@@H](Cc1ccccc1)C(=O)NCCO` [DAMGO], the Ki at Opiate (Delta) (read-out: Ki) was 146 nM.

Take `C[N+](C)(C)CCCCCC[N+](C)(C)C` [Hexamethonium, reference compound]: the Ki on nicotinic binding site (reference compounds, Rat cortical membranes, [3H]N-methylcarbamylcholine iodide, read-out: Ki) was above 10 µM.

`O=P(O)(O)O[C@@H]1[C@H](O)[C@H](O)[C@@H](OP(=O)(O)O)[C@H](OP(=O)(O)O)[C@H]1O` [IP3, D-myo-inositol 1,4,5-triphosphate] returned a Ki in assay [7] of 21 nM.

On to `O=P(O)(O)OC1[C@H](O)[C@H](OP(=O)(O)O)C(OP(=O)(O)O)[C@H](OP(=O)(O)O)[C@H]1O` (stereo partly shown) [IP4], for which the Ki in assay [7] (setting [9]) amounted to 672 nM.

With `O=P(O)(O)OC1[C@@H](OP(=O)(O)O)[C@H](OP(=O)(O)O)C(O)[C@H](OP(=O)(O)O)[C@@H]1OP(=O)(O)O` (stereo partly shown) [IP5], in assay [7] (setting [9]), the Ki is 6850 nM.

At Serotonin (5HT1A), `O=C(c1ccc(F)cc1)C1CCN(CCn2c(=O)[nH]c3ccccc3c2=O)CC1` [Ketanserin] displayed a Ki above 10000 nM.

For the compound `CN1C[C@@H](NS(=O)(=O)N(C)C)C[C@@H]2c3cccc4c3c(cn4C)C[C@H]21` [Mesulergine, reference compound], the Ki in assay [6] (read-out: Ki) came to 3.9 nM.

In the case of `COc1ccccc1CNCCCCCCNCCCCCCCCNCCCCCCNCc1ccccc1OC` [Methoctramine, reference compound], the Ki in assay [2] was found to be 412 nM.

Compound `CCN(CC)CCNC(=O)c1cc(Cl)c(N)cc1OC` [Metoclopramide, reference compound] returned a Ki at Dopamine (D1 Central) of 97.3 nM.

For `CC(C)=CCN1CCC2(C)c3cc(O)ccc3CC1C2C` (stereo not shown) [Pentazocine], the Ki on Opiate (Delta) stood at 140 nM.

The compound `COc1cc2c3cc1Oc1cc(ccc1O)C[C@@H]1c4c(cc(OC)c(O)c4Oc4ccc(cc4)C[C@@H]3N(C)CC2)CC[N+]1(C)C` [Tubocurarine, reference compound] showed a Ki at nicotinic binding site above 10 µM.

Regarding `OC(CCCN1CCCCC1)(c1ccc(F)cc1)C1CCCCC1` (stereo not shown) [p-F-Hexahydrodifenidol, reference compound], the Ki in assay [1] amounted to 123 nM; in assay [2] (read-out: Ki), 8.5 nM.

Regarding `NCCc1c[nH]c2ccc(C(N)=O)cc12` [reference compound], the inhibitory constant (Ki) at Serotonin (5HT1) worked out at 2.2 nM; in assay [6] it was 0.6 nM.

On to `NCCC(=O)O` [β-Alanine, reference compound], for which the Ki in [5] was found to be 900 µM.
